Where two headings read alike, the source gives them in different places.

Data set [1] can be described thus: Cytotoxicity in HeLa cells, ATP content (ATPlite kit). The conditions noted are these: human, three days incubation, read-out: Tox CC50. It is filed as cell-based. How it is done:
(§1) The EC50 was defined as the 50% inhibitory concentration for GFP expression. In parallel, compounds were incubated for three days in a set of white 96-well microtitier plates (Corning) and the cytotoxicity of compounds in HeLa cells was determined by measuring the ATP content of the cells using the ATPlite kit (PerkinElmer, Zaventem, Belgium) according to the manufacturer's instructions. The CC50 was defined as the 50% concentration for cytotoxicity.

A further data set concerns rgRSV224 virus. Briefly: Antiviral activity: inhibition of rgRSV224 replication (GFP expression) in HeLa cells. It is filed as cell-based, respiratory syncytial virus (RSV). The settings on record: read-out: WT activity EC50. How it is done:
Black 96-well clear-bottom microtiter plates (Corning, Amsterdam, The Netherlands) were filled in duplicate using a customized robot system with serial 4-fold dilutions of compound in a final volume of 50 μl culture medium [RPMI medium without phenol red, 10% FBS, 0.04% gentamycin (50 mg/ml) and 0.5% DMSO]. Then, 100 μl of a HeLa cell suspension (5×10^4 cells/ml) in culture medium was added to each well followed by the addition of 50 μl rgRSV224 (MOI=0.02) virus in culture medium using a multidrop dispenser (Thermo Scientific, Erembodegem, Belgium). rgRSV224 virus is an engineered virus that includes an additional GFP gene (Hallak et al, 2000) and was in-licensed from the NIH (Bethesda, Md., USA). Medium, virus- and mock-infected controls were included in each test. Cells were incubated at 37° C. in a 5% CO2 atmosphere. Three days post-virus exposure, viral replication was quantified by measuring GFP expression in the cells by a MSM laser microscope (Tibotec, Beerse, Belgium).
as §1
Compounds were tested for RSV inhibitory activity. The results are depicted in the Table below (n.d. means not determined): […]

Another data set deals with HeLa cells. Description: Cytotoxicity in HeLa cells, ATP content (ATPlite kit). It is filed as cell-based. The conditions noted are these: three days incubation, read-out: Tox CC50. How it is done:
as §1
A general note: Cellular ATP, detected with luciferase, serves as a proxy for viable cell number.

Setting [2] is: human respiratory syncytial virus, HeLa, 72 h.

A word on the CC50: it is the concentration giving 50% cytotoxicity. Broadly, the EC50 is the concentration at which the effect is half-maximal. Take `CC1(n2c(=O)n(Cc3nc4cc(Cl)ccc4n3CCCS(C)(=O)=O)c3cnccc32)CC1` [Compound P3]: in data set [1], the CC50 at 3 days is more than 100000 nM. Besides, the EC50 in the data set with rgRSV224 virus (setting [2]) turned out to be 0.25 nM.

A word on the melting point: it is the temperature of the solid-liquid transition. `O=c1n(Cc2nc3cc(Cl)ccc3n2CCCCF)c2cnccc2n1-c1ccc(F)cc1` [Compound P4, 3-((5-chloro-1-(4-fluorobutyl)-1H-benzo[d]imidazol-2-yl)methyl)-1-(4-fluorophenyl)-1H-imidazo[4,5-c]pyridin-2(3H)-one] had a melting point of 180 °C. Besides, the CC50 at 3 days in data set [1] was more than 100000 nM. Also, in the data set on rgRSV224 virus (setting [2]), the EC50 is 0.3 nM.

On to `COc1ccc(-n2c(=O)n(Cc3nc4cc(Cl)ccc4n3CCCCF)c3cnccc32)cc1` [Compound P5, 3-((5-chloro-1-(4-fluorobutyl)-1H-benzo[d]imidazol-2-yl)methyl)-1-(4-methoxyphenyl)-1H-imidazo[4,5-c]pyridin-2(3H)-one], for which the melting point amounted to 167 °C. In addition, the CC50 at 3 days in data set [1] is more than 100000 nM. The EC50 with rgRSV224 virus (setting [2]) is less than 0.1 nM.

The compound `O=c1n(Cc2nc3cc(Cl)ccc3n2CCCCF)c2cnccc2n1-c1ccc2ncccc2c1` [Compound P9, 3-((5-chloro-1-(4-fluororbutyl)-1H-benzo[d]imidazol-2-yl)methyl)-1-(quinolin-6-yl)-1H-imidazo[4,5-c]pyridin-2(3H)-one] registered a melting point of 231 °C. For the same compound, the CC50 at 3 days in data set [1] is more than 100000 nM. Also, the EC50 with rgRSV224 virus (setting [2]) came to 0.25 nM.

Regarding `O=c1n(Cc2nc3cc(Cl)ccc3n2CCCCF)c2cnccc2n1-c1ccc(F)nc1` [Compound P6, 3-((5-chloro-1-(4-fluorobutyl)-1H-benzo[d]imidazol-2-yl)methyl)-1-(6-fluoropyridin-3-yl)-1H-imidazo[4,5-c]pyridin-2(3H)-one], the melting point amounted to 208 °C. Besides, the CC50 at 3 days in data set [1] was more than 100000 nM. Moreover, the EC50 with rgRSV224 virus (setting [2]) was found to be 0.79 nM.

For `CC(C)(C)OC(=O)N1CC(n2c(=O)n(Cc3nc4cc(Cl)ccc4n3CCCS(C)(=O)=O)c3ccccc32)C1` [Compound P1, tert-butyl-3-(3-((5-chloro-1-(3-(methyl-sulfonyl)propyl)-1H-bezon[d]imidazol-2-yl)methyl)-2-oxo-2,3-dihydro-1H-imidazo[d]imidazol-1-yl)azetidine-1-carboxylate], the CC50 at 3 days in data set [1] was more than 100000 nM. The EC50 in the data set on rgRSV224 virus (setting [2]) worked out at 0.68 nM.

With `CC(C)(C)n1c(=O)n(Cc2nc3cc(Cl)ccc3n2CCCS(C)(=O)=O)c2cnccc21` [Compound P2, 1-tert-butyl-3-((5-chloro-1-(3-(methyl-sulfonyl)propyl)-1H-benzo[d]imidazol-2-yl)methyl)-1H-imidazo[4,5-c]pyridin-2(3H)-one], the melting point came out at 197 °C. Besides, the CC50 at 3 days in data set [1] is more than 100000 nM. Moreover, in the data set with rgRSV224 virus (setting [2]), the EC50 came to 0.39 nM.

With “3-((5-chloro-1-(4-fluorobutyl)-1H-benzo[d]imidazol-2-yl)methyl)-1-(tetrahydrofuran-3-yl)-1H-imidazo[4,5-c]pyridin-2(3H)-one [Compound P10]”, the CC50 in the data set with HeLa cells was more than 100000 nM. In addition, the EC50 with rgRSV224 virus (rgRSV224 (MOI=0.02) in HeLa cells, GFP expression three days post-virus exposure) is 15 nM.

Turning to `COc1ccc(-n2c(=O)n(Cc3nc4cc(Cl)ccc4n3CCCS(C)(=O)=O)c3cnccc32)cc1` [Compound P7, 3-((5-chloro-1-(3-(methylsulfonyl)propyl)-1H-benzo[d]imidazol-2-yl)-methyl)-1-(4-methoxyphenyl)-1H-imidazo[4,5-c]pyridin-2(3H)-one], the melting point came to 250 °C. Further, the CC50 at 3 days in data set [1] is more than 100000 nM. In addition, the EC50 with rgRSV224 virus (setting [2]) is 0.05 nM.

Compound `O=c1n(Cc2nc3cc(Cl)ccc3n2CCCCF)c2cnccc2n1-c1nccs1` [Compound P8, 3-((5-chloro-1-(4-fluororbutyl)-1H-benzo[d]imidazol-2-yl)methyl)-1-(thiazol-2-yl)-1H-imidazo[4,5-c]pyridin-2(3H)-one] came in with a melting point of 206 °C. The CC50 at 3 days in data set [1] is more than 100000 nM. Besides, in the data set with rgRSV224 virus (setting [2]), the EC50 was 0.19 nM.

The values are drawn from patent US20150166533A1, “NOVEL 1,3-DIHYDRO-2H-BENZIMIDAZOL-2-ONE DERIVATIVES SUBSTITUTED WITH BENZIMIDAZOLES AS RESPIRATORY SYNCYTIAL VIRUS ANTIVIRAL AGENTS” (Janssen R&D Ireland, priority 2012, published 2015).
